Laboratory results taken from PubChem BioAssay (NCI).
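Growth conditions: 96-well plates. Treatment: test compound, 48 hours, 5 concentrations. Analysis: linear interpolation between bracketing concentrations; unreached endpoints set to highest concentration. TGI is the concentration that stops growth completely.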

Legend:
Experiment in all cases: NCI anticancer screen, dose series, 48 h
[1] = test system: SK-MEL-5 melanoma
[2] = test system: OVCAR-4 ovarian
[3] = test system: HCC-2998 colon
[4] = test system: CCRF-CEM leukemia
[5] = test system: MDA-MB-231 breast
[6] = test system: MCF7 breast
[7] = test system: K-562 leukemia
[8] = test system: MALME-3M melanoma
[9] = test system: KM12 colon
[10] = test system: HCT-15 colon
[11] = test system: HOP-92 NSCLC
[12] = test system: NCI-H23 lung
[13] = test system: HCT-116 colon
[14] = test system: SK-MEL-28 melanoma
[15] = test system: COLO 205 colon
[16] = test system: T-47D breast
[17] = test system: NCI-H522 lung
[18] = test system: RPMI-8226 leukemia
[19] = test system: EKVX NSCLC
[20] = test system: NCI-H460 lung
[21] = test system: DU-145 prostate
[22] = test system: RXF 393 renal
[23] = test system: M14 melanoma
[24] = test system: NCI-H226 lung
[25] = test system: HS 578T breast
[26] = test system: SW-620 colon
[27] = test system: OVCAR-5 ovarian
[28] = test system: LOX IMVI melanoma
[29] = test system: SNB-75 CNS
[30] = test system: UO-31 renal
[31] = test system: IGROV1 ovarian
[32] = test system: HT29 colon
[33] = test system: SF-268 CNS
[34] = test system: ACHN renal
[35] = test system: 786-0 renal
[36] = test system: TK-10 renal
[37] = test system: HL-60(TB) leukemia
[38] = test system: U251 CNS
[39] = test system: OVCAR-8 ovarian
[40] = test system: MDA-MB-435
[41] = test system: A549 NSCLC
[42] = test system: SR leukemia
[43] = test system: SNB-19 CNS
[44] = test system: SK-OV-3 ovarian
[45] = test system: MDA-N
[46] = test system: A498 renal
[47] = test system: NCI/ADR-RES ovarian
[48] = test system: SF-295 CNS
[49] = test system: MOLT-4 leukemia
[50] = test system: SF-539 CNS
[51] = test system: CAKI-1 renal
[52] = test system: SN12C renal
[53] = test system: UACC-257 melanoma
[54] = test system: HOP-62 NSCLC
[55] = test system: SK-MEL-2 melanoma
[56] = test system: UACC-62 melanoma
[57] = test system: BT-549 breast
[58] = test system: PC-3 prostate
[59] = test system: OVCAR-3 ovarian

## Nc1c(N2CCOCC2)c(=O)nc2[nH]/c(=C\c3ccccc3O)c(=O)n12
[1]
  TGI: > 100 µM
[2]
  TGI: > 100 µM
[3]
  TGI: > 100 µM
[4]
  TGI: > 100 µM
[5]
  TGI: > 100 µM
[6]
  TGI: > 100 µM
[7]
  TGI: > 100 µM
[8]
  TGI: > 100 µM
[9]
  TGI: > 100 µM
[10]
  TGI: > 100 µM
[11]
  TGI: > 100 µM
[12]
  TGI: > 100 µM
[13]
  TGI: > 100 µM
[14]
  TGI: > 100 µM
[15]
  TGI: > 100 µM
[16]
  TGI: > 100 µM
[17]
  TGI: > 100 µM
[18]
  TGI: 77.3 µM
[19]
  TGI: > 100 µM
[20]
  TGI: > 100 µM
[21]
  TGI: > 100 µM
[22]
  TGI: > 100 µM
[23]
  TGI: > 100 µM
[24]
  TGI: > 100 µM
[25]
  TGI: > 100 µM
[26]
  TGI: > 100 µM
[27]
  TGI: > 100 µM
[28]
  TGI: > 100 µM
[29]
  TGI: > 100 µM
[30]
  TGI: > 100 µM
[31]
  TGI: > 100 µM
[32]
  TGI: > 100 µM
[33]
  TGI: > 100 µM
[34]
  TGI: > 100 µM
[35]
  TGI: > 100 µM
[36]
  TGI: > 100 µM
[37]
  TGI: > 100 µM
[38]
  TGI: > 100 µM
[39]
  TGI: > 100 µM
[40]
  TGI: > 100 µM
[41]
  TGI: > 100 µM
[42]
  TGI: > 100 µM
[43]
  TGI: > 100 µM
[44]
  TGI: > 100 µM
[45]
  TGI: > 100 µM
[46]
  TGI: > 100 µM
[47]
  TGI: > 100 µM
[48]
  TGI: > 100 µM
[49]
  TGI: > 100 µM
[50]
  TGI: > 100 µM
[51]
  TGI: > 100 µM
[52]
  TGI: > 100 µM
[53]
  TGI: > 100 µM

## CC(=N/NC(=S)N(C)C)/C(=N\NC(=S)N(C)C)c1ccccc1
[1]
  TGI: 3.14 µM
[2]
  TGI: 3.74 µM
[3]
  TGI: 2.99 µM
[5]
  TGI: > 23.8 µM
[6]
  TGI: > 25.6 µM
[7]
  TGI: > 100 µM
[8]
  TGI: 3.5 µM
[9]
  TGI: 4.44 µM
[10]
  TGI: 4.36 µM
[54]
  TGI: 5.33 µM
[11]
  TGI: 3.53 µM
[13]
  TGI: 9.77 µM
[14]
  TGI: 4.03 µM
[15]
  TGI: 3.33 µM
[55]
  TGI: 4.69 µM
[56]
  TGI: 4.44 µM
[16]
  TGI: 3.54 µM
[17]
  TGI: 3.78 µM
[19]
  TGI: 3.56 µM
[20]
  TGI: 3.91 µM
[57]
  TGI: 4.63 µM
[21]
  TGI: 10.6 µM
[22]
  TGI: 2.95 µM
[23]
  TGI: 4.14 µM
[24]
  TGI: 3.13 µM
[25]
  TGI: 6.26 µM
[26]
  TGI: 3.97 µM
[27]
  TGI: 5.03 µM
[28]
  TGI: > 100 µM
[29]
  TGI: 4.62 µM
[30]
  TGI: 6.21 µM
[31]
  TGI: 3.36 µM
[32]
  TGI: 9.46 µM
[58]
  TGI: 4.64 µM
[33]
  TGI: 4.84 µM
[59]
  TGI: 3.68 µM
[34]
  TGI: 3.26 µM
[35]
  TGI: 4.04 µM
[36]
  TGI: 3 µM
[38]
  TGI: 7.96 µM
[40]
  TGI: 3.56 µM
[41]
  TGI: 8.56 µM
[43]
  TGI: 6.85 µM
[44]
  TGI: 3.53 µM
[45]
  TGI: 8.58 µM
[46]
  TGI: 3.12 µM
[47]
  TGI: 4.99 µM
[48]
  TGI: 4.46 µM
[49]
  TGI: > 100 µM
[50]
  TGI: 25.8 µM
[51]
  TGI: 6.96 µM
[52]
  TGI: 3.24 µM
[53]
  TGI: 4.19 µM

## C=C1[C@@H]2CCC3[C@]4(C)C(CC[C@@]5(C)C(=O)O[C@H](O)[C@@H]45)[C@H](O)[C@]3(C2)[C@H]1OC1OC(CO)C(O)C(O)C1O (stereo partly drawn)
[1]
  TGI: > 50 µM
[2]
  TGI: > 50 µM
[5]
  TGI: > 50 µM
[6]
  TGI: > 50 µM
[7]
  TGI: > 50 µM
[8]
  TGI: > 50 µM
[9]
  TGI: > 50 µM
[10]
  TGI: > 50 µM
[54]
  TGI: > 50 µM
[12]
  TGI: > 50 µM
[13]
  TGI: > 50 µM
[14]
  TGI: > 50 µM
[15]
  TGI: > 50 µM
[55]
  TGI: > 50 µM
[56]
  TGI: > 50 µM
[16]
  TGI: > 50 µM
[18]
  TGI: > 50 µM
[19]
  TGI: > 50 µM
[20]
  TGI: > 50 µM
[57]
  TGI: > 50 µM
[21]
  TGI: > 50 µM
[22]
  TGI: > 50 µM
[23]
  TGI: > 50 µM
[24]
  TGI: > 50 µM
[25]
  TGI: > 50 µM
[26]
  TGI: > 50 µM
[27]
  TGI: > 50 µM
[28]
  TGI: > 50 µM
[29]
  TGI: > 50 µM
[30]
  TGI: > 50 µM
[31]
  TGI: > 50 µM
[32]
  TGI: > 50 µM
[58]
  TGI: > 50 µM
[33]
  TGI: > 50 µM
[59]
  TGI: > 50 µM
[34]
  TGI: > 50 µM
[35]
  TGI: > 50 µM
[36]
  TGI: > 50 µM
[37]
  TGI: > 50 µM
[38]
  TGI: > 50 µM
[39]
  TGI: > 50 µM
[41]
  TGI: > 50 µM
[43]
  TGI: > 50 µM
[44]
  TGI: > 50 µM
[45]
  TGI: > 50 µM
[46]
  TGI: > 50 µM
[47]
  TGI: > 50 µM
[48]
  TGI: > 50 µM
[49]
  TGI: > 50 µM
[50]
  TGI: > 50 µM
[52]
  TGI: > 50 µM
[53]
  TGI: > 50 µM
